Common to all, as to assay type: cell-based, human
In experiment [1] the test system is TCR NYN-1 (Jurkat E6-1 TPR cells).
The test system of experiment [2] is TCR NYN-2 (Jurkat E6-1 TPR cells).
Experiment [3] relates to TCR NYN-3 (Jurkat E6-1 TPR cells).
Experiment [4] deals with NYN peptide-specific TCRs (NYN-1 to NYN-4 Jurkat E6-1 TPR cell lines).

The values that follow come from publication PMC11641755, “Features of Highly Homologous T-Cell Receptor Repertoire in the Immune Response to Mutations in Immunogenic Epitopes” (International Journal of Molecular Sciences, 2024).

With NYDYMYRLF [N450D + L452M], the “effect of the mutation on response / affinity of NYN-1 (in words)” value in experiment [1] is “not”. In experiment [2], the “effect of the mutation on response / affinity of NYN-2 (in words)” value is recorded as “slightly disrupted the response”. Moreover, in experiment [3], the “effect of the mutation on response / affinity of NYN-3 (in words)” value is “slightly disrupted the response”.
For NYDYWYRLF [N450D + L452W], the “effect of the mutation on response / affinity of NYN-2 (in words)” value in experiment [2] is given as “increased the affinity”. For the same sequence, the “effect of the mutation on response / affinity of NYN-3 (in words)” value in experiment [3] is given as “increased the affinity”. Besides, in experiment [4], the “effect of the mutation on the T-cell response / recognition (in words)” value was “did not affect the T-cell response”.
